Molecular target: T1, AidH (Ochrobactrum sp. T63, UniProt D2J2T6)
T1 construct: full length (251 residues), pET22b(+), C-terminal His tag, E. coli BL21(DE3); monomer in solution; alpha/beta-hydrolase, metal-independent
T1 sequence (D2J2T6 1-271): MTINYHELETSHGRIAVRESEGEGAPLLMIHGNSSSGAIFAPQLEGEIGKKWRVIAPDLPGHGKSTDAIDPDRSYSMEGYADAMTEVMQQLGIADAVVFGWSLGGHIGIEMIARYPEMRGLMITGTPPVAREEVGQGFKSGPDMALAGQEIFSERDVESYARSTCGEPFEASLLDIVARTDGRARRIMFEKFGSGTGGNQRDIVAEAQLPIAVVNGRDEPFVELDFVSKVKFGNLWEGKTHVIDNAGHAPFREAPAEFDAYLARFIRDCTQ
Assay: X-ray crystal structure, […] A, soaked crystal
Format: binding
Settings: product of C4-HSL hydrolysis; active site, hydrogen bonds to Ser102, His248, Tyr160

CCCC(=O)N[C@@H](CCO)C(=O)O [C4-HS, N-butanoyl homoserine]
X-ray crystal structure, 1.09 A, soaked crystal: crystal structure of wild-type AidH complexed with the product C4-HS (AidH–C4-HS) was determined

Source: PMC3532132, “High-resolution structures of AidH complexes provide insights into a novel catalytic mechanism for N-acyl homoserine lactonase” (Acta Crystallographica Section D: Biological Crystallography, 2012)
